The target of assay [1] is T1, Ls-AChBP (Lymnaea stagnalis, UniProt P58154).
T1 construct: made in house
In words: biochemical. Conditions: SEM. The class given is binding.

The target of assay [2] is T2, Ac-AChBP (Aplysia californica, UniProt Q8WSF8).
T2 construct: made in house
In words: biochemical. The class given is binding. Conditions: SEM.

Assay [3] addresses human α7 nAChR (Homo sapiens, UniProt P36544). In words: cell-based. Conditions: SEM.
For assay [4], the target named is human α3β4 nAChR (Homo sapiens, UniProt P30926+P32297). In words: cell-based.
human α3β4 nAChR, sequence (P32297 32-505 limits assumed): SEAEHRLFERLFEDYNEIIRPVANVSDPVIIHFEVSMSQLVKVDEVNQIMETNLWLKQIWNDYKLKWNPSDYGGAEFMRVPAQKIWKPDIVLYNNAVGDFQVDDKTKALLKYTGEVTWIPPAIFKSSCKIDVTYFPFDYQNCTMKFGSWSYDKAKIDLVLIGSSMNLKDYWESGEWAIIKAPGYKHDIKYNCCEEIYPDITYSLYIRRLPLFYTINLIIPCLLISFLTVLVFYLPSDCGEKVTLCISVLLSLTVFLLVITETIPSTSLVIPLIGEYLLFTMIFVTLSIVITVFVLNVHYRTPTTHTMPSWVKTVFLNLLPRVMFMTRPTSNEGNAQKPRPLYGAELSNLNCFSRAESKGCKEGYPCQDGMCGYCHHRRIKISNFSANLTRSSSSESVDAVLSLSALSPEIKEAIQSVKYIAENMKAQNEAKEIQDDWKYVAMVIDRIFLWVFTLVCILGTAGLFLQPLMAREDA
human α3β4 nAChR, sequence (P30926 22-498 limits assumed): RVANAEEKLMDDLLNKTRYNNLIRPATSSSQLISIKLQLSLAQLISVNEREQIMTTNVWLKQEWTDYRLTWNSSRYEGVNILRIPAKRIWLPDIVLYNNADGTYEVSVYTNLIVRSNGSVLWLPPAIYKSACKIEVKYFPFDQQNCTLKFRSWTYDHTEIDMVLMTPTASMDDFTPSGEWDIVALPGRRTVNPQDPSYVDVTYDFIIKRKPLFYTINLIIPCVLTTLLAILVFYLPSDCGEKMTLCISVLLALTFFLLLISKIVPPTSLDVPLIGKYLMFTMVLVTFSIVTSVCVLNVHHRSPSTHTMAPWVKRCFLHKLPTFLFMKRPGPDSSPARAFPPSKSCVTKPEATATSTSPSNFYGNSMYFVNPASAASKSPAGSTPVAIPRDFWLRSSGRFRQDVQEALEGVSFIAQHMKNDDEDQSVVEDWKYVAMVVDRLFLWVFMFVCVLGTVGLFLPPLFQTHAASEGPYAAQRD

Bridge positions count the residues as written; N and C are the ends. Peptide text beside a SMILES is read from it.

human α7 nAChR, sequence (P36544 23-502 limits assumed): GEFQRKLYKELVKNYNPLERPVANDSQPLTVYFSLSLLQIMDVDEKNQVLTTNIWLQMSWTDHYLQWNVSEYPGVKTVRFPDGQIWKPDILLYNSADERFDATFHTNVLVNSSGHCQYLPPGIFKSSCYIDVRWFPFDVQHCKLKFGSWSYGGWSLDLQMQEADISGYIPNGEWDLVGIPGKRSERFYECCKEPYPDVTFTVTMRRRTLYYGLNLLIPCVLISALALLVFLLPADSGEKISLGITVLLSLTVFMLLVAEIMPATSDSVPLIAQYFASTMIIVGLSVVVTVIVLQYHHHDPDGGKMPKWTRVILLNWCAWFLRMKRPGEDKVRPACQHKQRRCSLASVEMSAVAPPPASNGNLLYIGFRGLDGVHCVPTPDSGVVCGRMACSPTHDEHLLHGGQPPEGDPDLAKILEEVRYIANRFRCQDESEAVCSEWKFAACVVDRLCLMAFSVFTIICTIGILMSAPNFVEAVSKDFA
T2 sequence (Q8WSF8 18-236 limits assumed): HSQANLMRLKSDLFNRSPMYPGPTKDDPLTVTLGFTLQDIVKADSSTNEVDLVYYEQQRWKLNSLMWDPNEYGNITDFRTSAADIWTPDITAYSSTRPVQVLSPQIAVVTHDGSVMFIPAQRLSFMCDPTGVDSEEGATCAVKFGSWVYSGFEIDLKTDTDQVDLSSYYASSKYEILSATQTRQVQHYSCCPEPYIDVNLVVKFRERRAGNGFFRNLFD
T1 sequence (P58154 20-229 limits assumed): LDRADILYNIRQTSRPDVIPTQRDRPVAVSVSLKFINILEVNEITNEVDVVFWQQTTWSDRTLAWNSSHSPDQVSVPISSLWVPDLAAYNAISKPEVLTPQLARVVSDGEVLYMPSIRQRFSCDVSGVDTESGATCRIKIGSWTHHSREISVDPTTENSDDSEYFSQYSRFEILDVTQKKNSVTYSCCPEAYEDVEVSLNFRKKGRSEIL

One may read the IC50 as the concentration at which inhibition is half-maximal. Low values mean inhibition by little substance, high ones a need for much substance. For the compound `CC[C@H](C)[C@@H]1NC(=O)[C@H](CC(N)=O)NC(=O)[C@@H]2CCCN2C(=O)[C@H](CC(N)=O)NC(=O)[C@H](CC(N)=O)NC(=O)[C@H](C(C)C)NC(=O)[C@H](CCCNC(=N)N)NC(=O)[C@@H]2CSSC[C@H](NC(=O)CNC(=O)[C@@H](N)CO)C(=O)N[C@@H](CSSC[C@@H](C(N)=O)NC1=O)C(=O)N[C@@H](CO)C(=O)N[C@@H](CC(N)=O)C(=O)N1CCC[C@H]1C(=O)N[C@@H](C)C(=O)N2` [LsIA] (H-SGCCSNPACRVNNPNIC-NH2; disulfide 3-9, 4-17), the half-maximal inhibitory concentration (IC50) is 210 ± 40 nM in assay [1], 5.44 ± 0.35 nM in assay [2], 70 ± 7 nM in assay [3] and more than 10 µM in assay [4].
